Experimental data reported in the SangsterLogP compilation.

assay: method code SF, from DOI: 10.1080/10826079508010421; details: pH 11.0

Row | Structure (SMILES) | logD
1 | COc1ccccc1OCC1CN=C(N)O1 (stereo not given) | 0.85
2 | NC1=NCC(COc2ccccc2)O1 (stereo not given) | 1.27
3 | Cc1ccc(OCC2CN=C(N)O2)cc1 (stereo not given) | 1.79
4 | Cc1ccccc1OCC1CN=C(N)O1 (stereo not given) | 1.69
5 | COc1ccc(OCC2CN=C(N)O2)cc1 (stereo not given) | 1.26
6 | NC1=NCC(COc2ccccc2Cl)O1 (stereo not given) | 1.77
7 | NC1=NCC(COc2ccc(N3CCOCC3)cc2)O1 (stereo not given) | 0.6
8 | CCOc1ccccc1OCC1CN=C(N)O1 (stereo not given) | 1.24
9 | NC1=NCC(COc2ccc(Cl)cc2)O1 (stereo not given) | 2
10 | NC1=NCC(COc2ccc([N+](=O)[O-])cc2)O1 (stereo not given) | 1.17
